Data taken from ChEMBL document CHEMBL4507268 (2021).

Key:
[1] = molecular target: RAC-beta serine/threonine-protein kinase (Homo sapiens) (UniProt P31751); settings: Compound concentration 1000.0 nM
[2] = molecular target: Cyclin-dependent kinase-like 1 (Homo sapiens) (UniProt Q00532); settings: Compound concentration 1000.0 nM
[3] = molecular target: T1, Dual specificity tyrosine-phosphorylation-regulated kinase 2 (Homo sapiens) (UniProt Q92630); settings: Compound concentration 1000.0 nM
T1 sequence (whole entry): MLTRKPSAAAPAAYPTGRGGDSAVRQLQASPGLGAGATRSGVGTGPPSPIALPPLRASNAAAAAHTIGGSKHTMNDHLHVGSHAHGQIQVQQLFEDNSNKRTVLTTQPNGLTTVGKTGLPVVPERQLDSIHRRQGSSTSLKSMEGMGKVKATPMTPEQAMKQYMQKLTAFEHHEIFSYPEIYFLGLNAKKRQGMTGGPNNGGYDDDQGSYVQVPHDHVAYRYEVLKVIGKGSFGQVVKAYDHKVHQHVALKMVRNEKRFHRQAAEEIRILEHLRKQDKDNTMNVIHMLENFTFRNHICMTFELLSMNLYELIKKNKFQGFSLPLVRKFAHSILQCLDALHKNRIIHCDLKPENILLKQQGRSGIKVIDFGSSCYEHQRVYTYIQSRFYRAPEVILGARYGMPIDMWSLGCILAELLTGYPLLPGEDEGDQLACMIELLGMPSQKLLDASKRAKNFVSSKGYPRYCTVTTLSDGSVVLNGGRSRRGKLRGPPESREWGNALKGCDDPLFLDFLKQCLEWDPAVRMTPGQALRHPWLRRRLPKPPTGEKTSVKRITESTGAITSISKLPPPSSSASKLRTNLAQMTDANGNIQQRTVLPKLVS

[4] = molecular target: Eukaryotic translation initiation factor 2-alpha kinase 1 (Homo sapiens) (UniProt Q9BQI3); settings: Compound concentration 1000.0 nM
[5] = molecular target: T2, Ephrin type-A receptor 3 (Homo sapiens) (UniProt P29320); settings: Compound concentration 1000.0 nM
T2 sequence (whole entry): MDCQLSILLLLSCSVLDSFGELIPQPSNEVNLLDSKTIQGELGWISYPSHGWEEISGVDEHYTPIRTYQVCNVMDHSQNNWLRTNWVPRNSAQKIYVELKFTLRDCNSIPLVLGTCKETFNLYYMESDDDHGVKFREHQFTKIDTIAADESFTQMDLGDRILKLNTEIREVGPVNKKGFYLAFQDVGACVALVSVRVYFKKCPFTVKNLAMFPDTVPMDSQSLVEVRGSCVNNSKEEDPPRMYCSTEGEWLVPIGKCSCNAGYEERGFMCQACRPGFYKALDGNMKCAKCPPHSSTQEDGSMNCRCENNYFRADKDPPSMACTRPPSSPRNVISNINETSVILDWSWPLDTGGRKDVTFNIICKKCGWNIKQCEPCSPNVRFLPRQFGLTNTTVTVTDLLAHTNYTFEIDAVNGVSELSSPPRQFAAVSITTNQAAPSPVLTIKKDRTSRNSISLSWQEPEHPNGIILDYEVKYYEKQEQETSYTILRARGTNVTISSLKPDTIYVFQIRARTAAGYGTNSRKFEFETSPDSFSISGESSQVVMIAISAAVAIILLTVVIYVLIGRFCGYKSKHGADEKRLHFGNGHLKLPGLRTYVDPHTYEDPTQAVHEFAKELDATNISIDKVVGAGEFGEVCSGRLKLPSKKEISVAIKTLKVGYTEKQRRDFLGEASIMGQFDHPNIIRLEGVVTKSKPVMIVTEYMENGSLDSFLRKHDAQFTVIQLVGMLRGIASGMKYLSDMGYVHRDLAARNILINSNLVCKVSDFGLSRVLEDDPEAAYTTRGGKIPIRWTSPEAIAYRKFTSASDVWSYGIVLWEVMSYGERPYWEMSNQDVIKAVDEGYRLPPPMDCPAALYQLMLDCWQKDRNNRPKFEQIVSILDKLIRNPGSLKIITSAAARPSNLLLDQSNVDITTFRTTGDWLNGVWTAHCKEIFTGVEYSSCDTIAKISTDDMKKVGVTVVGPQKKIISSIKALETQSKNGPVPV

[6] = tested on: Receptor-type tyrosine-protein kinase FLT3 (Homo sapiens), P36888 [UNDEFINED MUTATION]; settings: Compound concentration 1000.0 nM
[7] = tested on: Mast/stem cell growth factor receptor Kit (Homo sapiens), P10721 [A829P]; settings: Compound concentration 1000.0 nM
[8] = tested on: Mast/stem cell growth factor receptor Kit (Homo sapiens), P10721 [V559D]; settings: Compound concentration 1000.0 nM
[9] = molecular target: Serine/threonine-protein kinase NIM1 (Homo sapiens) (UniProt Q8IY84); settings: Compound concentration 1000.0 nM
[10] = molecular target: Mitogen-activated protein kinase 11 (Homo sapiens) (UniProt Q15759); settings: Compound concentration 1000.0 nM
[11] = molecular target: Serine/threonine-protein kinase PAK 5 (Homo sapiens) (UniProt Q9P286); settings: Compound concentration 1000.0 nM
[12] = molecular target: Platelet-derived growth factor receptor alpha (Homo sapiens) (UniProt P16234); settings: Compound concentration 1000.0 nM
[13] = molecular target: Phosphatidylinositol 4-kinase beta (Homo sapiens) (UniProt Q9UBF8); settings: Compound concentration 1000.0 nM
[14] = molecular target: Ribosomal protein S6 kinase alpha-2 (Homo sapiens) (UniProt Q15349); settings: Compound concentration 1000.0 nM
[15] = molecular target: T3, Serine/threonine-protein kinase Sgk1 (Homo sapiens) (UniProt O00141); settings: Compound concentration 1000.0 nM
T3 sequence (whole entry): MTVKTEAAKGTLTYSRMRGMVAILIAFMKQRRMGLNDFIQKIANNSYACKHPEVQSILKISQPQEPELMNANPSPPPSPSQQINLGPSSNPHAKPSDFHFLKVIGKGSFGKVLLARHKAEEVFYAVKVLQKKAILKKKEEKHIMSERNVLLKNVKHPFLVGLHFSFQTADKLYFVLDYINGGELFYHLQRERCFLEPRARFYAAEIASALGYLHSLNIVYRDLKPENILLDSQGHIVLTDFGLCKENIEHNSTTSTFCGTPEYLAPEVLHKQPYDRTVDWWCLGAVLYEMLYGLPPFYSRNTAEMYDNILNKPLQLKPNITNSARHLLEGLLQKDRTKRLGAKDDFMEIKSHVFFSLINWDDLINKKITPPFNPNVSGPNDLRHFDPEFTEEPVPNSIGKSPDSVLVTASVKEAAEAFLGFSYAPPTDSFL

[16] = molecular target: Non-receptor tyrosine-protein kinase TNK1 (Homo sapiens) (UniProt Q13470); settings: Compound concentration 1000.0 nM
[17] = molecular target: Wee1-like protein kinase 2 (Homo sapiens) (UniProt P0C1S8); settings: Compound concentration 1000.0 nM
[18] = molecular target: Kappa-type opioid receptor (Homo sapiens) (UniProt P41145); settings: Compound concentration 10.0 uM
Kappa-type opioid receptor (Homo sapiens), sequence (P41145 whole entry): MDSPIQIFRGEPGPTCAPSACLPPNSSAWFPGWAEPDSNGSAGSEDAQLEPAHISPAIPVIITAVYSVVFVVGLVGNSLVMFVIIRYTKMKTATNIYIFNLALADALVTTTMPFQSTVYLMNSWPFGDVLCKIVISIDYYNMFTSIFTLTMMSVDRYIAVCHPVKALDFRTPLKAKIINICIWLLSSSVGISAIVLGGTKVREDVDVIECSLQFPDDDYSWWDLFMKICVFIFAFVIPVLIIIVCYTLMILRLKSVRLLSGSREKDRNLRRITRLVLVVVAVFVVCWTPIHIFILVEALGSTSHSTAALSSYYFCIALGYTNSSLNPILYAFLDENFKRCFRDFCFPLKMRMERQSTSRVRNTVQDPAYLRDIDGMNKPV

Non-receptor tyrosine-protein kinase TNK1 (Homo sapiens), sequence (Q13470 whole entry): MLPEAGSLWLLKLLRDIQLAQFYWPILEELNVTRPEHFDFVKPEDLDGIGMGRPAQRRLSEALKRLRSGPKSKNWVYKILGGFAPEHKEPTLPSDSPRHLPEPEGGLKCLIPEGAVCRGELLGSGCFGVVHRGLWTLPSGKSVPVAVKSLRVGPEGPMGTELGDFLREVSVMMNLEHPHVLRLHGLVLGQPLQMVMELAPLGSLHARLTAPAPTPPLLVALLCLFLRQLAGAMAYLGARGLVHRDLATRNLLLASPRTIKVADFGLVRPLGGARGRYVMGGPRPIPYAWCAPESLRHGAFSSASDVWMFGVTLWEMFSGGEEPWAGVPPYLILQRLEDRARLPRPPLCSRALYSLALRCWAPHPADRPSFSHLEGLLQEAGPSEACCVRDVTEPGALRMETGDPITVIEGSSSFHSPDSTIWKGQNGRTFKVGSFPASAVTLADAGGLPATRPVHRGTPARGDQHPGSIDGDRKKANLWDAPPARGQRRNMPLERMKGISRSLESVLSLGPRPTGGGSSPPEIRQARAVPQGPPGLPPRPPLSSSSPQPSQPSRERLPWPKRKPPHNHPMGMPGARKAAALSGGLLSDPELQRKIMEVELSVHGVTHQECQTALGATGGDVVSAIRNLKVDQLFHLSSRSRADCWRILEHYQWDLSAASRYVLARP
Mast/stem cell growth factor receptor Kit (Homo sapiens), P10721 [V559D], sequence (P10721 whole entry V559D): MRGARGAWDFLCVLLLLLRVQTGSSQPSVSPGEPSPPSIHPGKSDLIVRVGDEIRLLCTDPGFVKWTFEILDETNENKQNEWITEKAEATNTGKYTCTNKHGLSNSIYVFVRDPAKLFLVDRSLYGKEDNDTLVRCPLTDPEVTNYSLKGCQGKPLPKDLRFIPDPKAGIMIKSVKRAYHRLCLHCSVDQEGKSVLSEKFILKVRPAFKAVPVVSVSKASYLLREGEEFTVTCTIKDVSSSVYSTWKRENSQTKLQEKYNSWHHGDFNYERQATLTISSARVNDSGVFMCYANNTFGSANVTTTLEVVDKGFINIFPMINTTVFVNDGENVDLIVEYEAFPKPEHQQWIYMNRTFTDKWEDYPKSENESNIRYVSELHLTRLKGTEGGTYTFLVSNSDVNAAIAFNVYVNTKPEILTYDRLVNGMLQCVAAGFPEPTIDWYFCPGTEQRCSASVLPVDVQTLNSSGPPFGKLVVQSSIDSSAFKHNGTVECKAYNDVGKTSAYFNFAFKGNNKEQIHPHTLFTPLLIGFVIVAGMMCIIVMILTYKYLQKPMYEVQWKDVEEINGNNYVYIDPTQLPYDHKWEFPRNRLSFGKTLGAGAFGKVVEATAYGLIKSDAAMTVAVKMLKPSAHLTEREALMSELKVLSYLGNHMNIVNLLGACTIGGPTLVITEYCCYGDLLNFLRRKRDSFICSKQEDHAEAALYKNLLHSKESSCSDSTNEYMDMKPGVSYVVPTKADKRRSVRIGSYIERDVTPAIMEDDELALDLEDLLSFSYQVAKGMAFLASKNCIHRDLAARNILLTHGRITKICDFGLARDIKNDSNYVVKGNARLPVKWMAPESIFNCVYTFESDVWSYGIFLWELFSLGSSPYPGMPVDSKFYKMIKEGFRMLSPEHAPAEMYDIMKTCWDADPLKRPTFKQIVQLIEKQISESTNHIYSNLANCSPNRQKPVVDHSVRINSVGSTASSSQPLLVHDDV
Phosphatidylinositol 4-kinase beta (Homo sapiens), sequence (Q9UBF8 2-816 limits assumed): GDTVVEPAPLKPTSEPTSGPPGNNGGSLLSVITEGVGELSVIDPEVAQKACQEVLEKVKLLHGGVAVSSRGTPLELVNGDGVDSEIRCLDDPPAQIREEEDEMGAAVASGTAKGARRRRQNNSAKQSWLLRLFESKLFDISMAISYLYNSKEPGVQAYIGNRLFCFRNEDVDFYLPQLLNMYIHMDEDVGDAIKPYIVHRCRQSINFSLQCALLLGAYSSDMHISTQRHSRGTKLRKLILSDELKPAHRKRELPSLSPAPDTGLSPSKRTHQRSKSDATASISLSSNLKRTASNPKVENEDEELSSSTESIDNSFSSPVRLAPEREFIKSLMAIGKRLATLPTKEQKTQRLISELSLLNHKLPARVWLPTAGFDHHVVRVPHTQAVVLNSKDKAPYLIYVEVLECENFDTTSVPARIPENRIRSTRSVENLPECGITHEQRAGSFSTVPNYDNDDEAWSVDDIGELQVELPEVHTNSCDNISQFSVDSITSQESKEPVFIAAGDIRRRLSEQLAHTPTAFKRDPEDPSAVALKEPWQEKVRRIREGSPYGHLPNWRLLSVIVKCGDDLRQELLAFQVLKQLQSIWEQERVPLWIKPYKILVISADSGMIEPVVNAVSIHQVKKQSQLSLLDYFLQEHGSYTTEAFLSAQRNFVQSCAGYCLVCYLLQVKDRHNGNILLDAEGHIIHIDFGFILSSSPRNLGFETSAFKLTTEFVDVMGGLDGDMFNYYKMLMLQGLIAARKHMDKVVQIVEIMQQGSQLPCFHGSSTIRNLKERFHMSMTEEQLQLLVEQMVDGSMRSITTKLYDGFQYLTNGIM
Mast/stem cell growth factor receptor Kit (Homo sapiens), P10721 [A829P], sequence (P10721 whole entry A829P): as the sequence (P10721 whole entry V559D) above, with D559V, A829P counted along it
Platelet-derived growth factor receptor alpha (Homo sapiens), sequence (P16234 whole entry): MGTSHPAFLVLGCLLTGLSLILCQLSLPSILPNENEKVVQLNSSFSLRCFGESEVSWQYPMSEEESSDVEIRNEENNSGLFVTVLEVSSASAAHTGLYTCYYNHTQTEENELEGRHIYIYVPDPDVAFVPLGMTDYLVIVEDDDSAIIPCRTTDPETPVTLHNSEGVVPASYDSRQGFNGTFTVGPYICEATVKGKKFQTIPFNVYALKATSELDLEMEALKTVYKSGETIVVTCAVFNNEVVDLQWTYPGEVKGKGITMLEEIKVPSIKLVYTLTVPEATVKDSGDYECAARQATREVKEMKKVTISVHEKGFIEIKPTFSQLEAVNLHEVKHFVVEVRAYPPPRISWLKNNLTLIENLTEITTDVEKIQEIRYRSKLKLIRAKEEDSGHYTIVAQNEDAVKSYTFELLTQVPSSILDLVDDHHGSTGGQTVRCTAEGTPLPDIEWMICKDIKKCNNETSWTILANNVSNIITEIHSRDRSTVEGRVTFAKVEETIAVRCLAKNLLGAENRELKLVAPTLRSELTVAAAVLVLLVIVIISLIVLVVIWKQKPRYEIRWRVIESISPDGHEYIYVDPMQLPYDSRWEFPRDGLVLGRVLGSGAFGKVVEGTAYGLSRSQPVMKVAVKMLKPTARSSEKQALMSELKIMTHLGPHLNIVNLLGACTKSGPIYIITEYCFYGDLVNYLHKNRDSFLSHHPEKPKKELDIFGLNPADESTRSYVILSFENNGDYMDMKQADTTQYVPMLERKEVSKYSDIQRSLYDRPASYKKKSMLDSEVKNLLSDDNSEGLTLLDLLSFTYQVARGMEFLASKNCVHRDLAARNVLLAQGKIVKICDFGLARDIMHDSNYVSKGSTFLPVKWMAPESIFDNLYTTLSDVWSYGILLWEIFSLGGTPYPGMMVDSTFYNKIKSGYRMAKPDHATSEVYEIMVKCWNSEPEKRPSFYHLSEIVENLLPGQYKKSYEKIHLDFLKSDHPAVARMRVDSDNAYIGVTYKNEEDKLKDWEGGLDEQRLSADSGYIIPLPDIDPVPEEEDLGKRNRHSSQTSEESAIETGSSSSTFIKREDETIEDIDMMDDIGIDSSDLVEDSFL
Cyclin-dependent kinase-like 1 (Homo sapiens), sequence (Q00532 whole entry): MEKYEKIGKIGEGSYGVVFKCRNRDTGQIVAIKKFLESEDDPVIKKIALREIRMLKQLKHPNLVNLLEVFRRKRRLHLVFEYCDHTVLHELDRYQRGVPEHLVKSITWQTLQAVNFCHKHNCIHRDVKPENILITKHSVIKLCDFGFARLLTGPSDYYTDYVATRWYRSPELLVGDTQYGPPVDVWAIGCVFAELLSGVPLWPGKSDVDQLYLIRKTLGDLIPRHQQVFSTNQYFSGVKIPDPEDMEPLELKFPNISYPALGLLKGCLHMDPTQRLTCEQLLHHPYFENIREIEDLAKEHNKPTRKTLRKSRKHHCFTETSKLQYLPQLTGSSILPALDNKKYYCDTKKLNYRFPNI
Mitogen-activated protein kinase 11 (Homo sapiens), sequence (Q15759 whole entry): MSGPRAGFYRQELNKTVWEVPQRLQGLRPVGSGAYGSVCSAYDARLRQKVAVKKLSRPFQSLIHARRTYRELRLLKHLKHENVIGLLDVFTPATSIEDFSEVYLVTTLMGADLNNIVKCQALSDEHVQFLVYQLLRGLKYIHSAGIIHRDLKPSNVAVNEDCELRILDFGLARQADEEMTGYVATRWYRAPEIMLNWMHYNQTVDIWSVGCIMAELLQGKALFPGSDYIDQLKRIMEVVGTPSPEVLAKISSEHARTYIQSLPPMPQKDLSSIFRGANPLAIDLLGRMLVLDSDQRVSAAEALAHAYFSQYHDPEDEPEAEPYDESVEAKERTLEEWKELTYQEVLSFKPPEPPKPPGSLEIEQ

Cc1nc(C2CCN(C(=O)c3ccc(OC(F)(F)F)cc3N)CC2)c2ncc(N3CCN(C)CC3)cc2n1 [BAY-693]
inactive: residual activity [1] 100% | residual activity [2] 89% | residual activity [3] 100% | residual activity [4] 85% | residual activity [5] 92% | residual activity [6] 100% | residual activity [7] 86% | residual activity [8] 93% | residual activity [9] 89% | residual activity [10] 100% | residual activity [11] 99% | residual activity [12] 100% | residual activity [13] 84% | residual activity [14] 100% | residual activity [15] 100% | residual activity [16] 100% | residual activity [17] 100% | inhibition [18] 21.2%

CN1CCN(c2cnc3c(C4CCN(C(=O)c5ccc(OC(F)(F)F)cc5N)CC4)ncnc3c2)CC1 [BAY-885]
inactive: residual activity [1] 100% | residual activity [2] 94% | residual activity [3] 100% | residual activity [4] 100% | residual activity [5] 100% | residual activity [6] 88% | residual activity [7] 100% | residual activity [8] 99% | residual activity [9] 100% | residual activity [10] 98% | residual activity [11] 100% | residual activity [12] 100% | residual activity [13] 96% | residual activity [14] 100% | residual activity [15] 100% | residual activity [16] 100% | residual activity [17] 100% | inhibition [18] 9.37%
